# According to US8821568B2, “Implant modified with non-hydroxylated vitamin D precursors” (Numat Biomedical S.L., priority 2008, dated 2014):
# Entries after “also recorded” stand apart in the source; their conditions may differ.
# Experiments:
# MC3T3-E1 cells [1] = assay: Real-time RT-PCR of osteoblast differentiation markers, coated titanium implants; assay type: cell-based, mouse; conditions: Ti implants, 48 h
# Procedure: (§1) To test the effect of the surface modification, 96-well plates were used. Ti disks were placed into the wells and treatments and UV-activation were performed over there. Cells grown onto untreated polystyrene tissue culture plastic (TCP) were added as a control for all the experiments. Cells were seeded at a density of 30,000 cells/cm^2 and they were maintained in α-MEM supplemented with 10% FCS and antibiotics. Culture media was collected after 48 hours, to test cytotoxicity and the production of the hydroxylated form of vitamin D, 25-D3. Cells were harvested after two days of culture using Trizol reagent (Roche Diagnostics, Mannheim, Germany), to analyze gene expression of several osteoblast differentiation markers and enzymes involved in vitamin D synthesis using real-time RT-PCR. On the other hand, MC3T3-E1 cells were harvested after 21 days to measure calcium content and ALP activity in the cell monolayer.
# RNA was isolated from cells using a monophasic solution of phenol and guanidine thiocyanate (Trizol, Roche Diagnostics, Mannheim, Germany) according to the manufacturer's protocol. RNA was quantified at 260 nm using a Nanodrop spectrophotometer (NanoDrop Technologies, Wilmington, Del., USA).
# Total RNA previously isolated was reverse-transcribed to cDNA using High Capacity RNA to cDNA kit (Applied Biosystems, Foster City, Calif.) according to the protocol of the supplier. The same amount of total RNA from each sample was converted into cDNA. Each cDNA was diluted ¼ and aliquots were stored at −20° C. until the PCR reactions were carried out.
# Real-time RT-PCR was performed for two reference genes: 18S ribosomal RNA (18S rRNA), glyceraldehyde-3-phosphate dehydrogenase (GAPDH); and eleven target genes: alkaline phosphathase (ALP), Interleukin 6 (IL-6), Collagen (Coll-1), Osteocalcin (OC), Bone Morphogenetic Protein 2 (BMP-2), Osterix (Osx), Receptor activator of nuclear factor kappa-B ligand (RANKL), Osteoprogesterin (OPG) and genes involved in vitamin D synthesis such as Vitamin D3 25-hydroxylase (CYP27A1) and 25 hydroxyvitamin D3-1-alpha hydroxylase (CYP27B1). Real-time PCR were performed in the Lightcycler 480® (Roche Diagnostics, Germany). Each reaction contained 5 μl of LightCycler-FastStart DNA Master^PLUS SYBR Green I (Roche Diagnostics, Mannheim, Germany), 0.5 μM of the sense and antisense specific primers (Table 1) and 3 μl of the cDNA dilution in a final volume of 10 μl. The normal amplification program consisted of a preincubation step for denaturation of the template cDNA (10 min 95° C.), followed by 45 cycles consisting of a denaturation step (10 s 95° C.), an annealing step (10 s 60° C., except for ALP that was 10 s at 65° C., OSX with 10 s at 68° C.) and an extension step (10 s 72° C.). After each cycle, fluorescence was measured at 72° C. Every run included a negative control without cDNA template. To confirm amplification specificity, PCR products were subjected to a melting curve analysis on the LightCycler and subsequently 2% agarose/TAE gel electrophoresis, Tm and amplicon size, respectively.
# To allow relative quantification after PCR, real-time efficiencies were calculated from the given slopes in the LightCycler 480 software (Roche Diagnostics, Mannheim, Germany) using serial dilutions. Relative quantification after PCR was calculated by normalizing target gene concentration in each sample by the concentration mean of the two reference genes in given sample using the Advanced relative quantification method provided by the LightCycler 480 analysis software.
# MC3T3-E1 cells [2] = assay: Calcium content (mineralization, ICP-AES) on coated titanium implants; assay type: cell-based, mouse; conditions: Ti implants; 28 days; UV-treated compared to UV-untreated cells and control group
# Procedure: as §1, with “On the other hand, MC3T3-E1 cells were harvested after 21 days to measure calcium content and ALP activity in the cell monolayer.” left out
# […] Cell lysates were put into freeze/thaw cycles (liquid nitrogen and 37° C. water bath) to improve protein recovery. […] ALP activity was calculated by measuring the cleavage of p-Nitrophenyl Phosphate (pNPP) (Sigma, St. Louis, Mo., USA) in a soluble yellow end product which absorbs at 405 nm. […] At this point, absorbance was read at 405 nm.
# To determine calcium content samples were analyzed by inductively coupled plasma atomic emission spectrometry (Optima 5300 DV, PerkinElmer, Massachussetts, USA). […]
compound,measurement,setting,value
"CC(C)CCC[C@@H](C)[C@H]1CC[C@H]2C3=CC=C4C[C@@H](O)CC[C@]4(C)[C@H]3CC[C@]12C [7-DHC, 7-dehydrocholesterol]",RANKL mRNA expression,"MC3T3-E1 cells [1]; 2×10^−2 nmols and 0.2 nmols, UV 15 minutes vs UV-untreated",significant decrease
same,RANKL mRNA levels,"MC3T3-E1 cells [1]; 10 minutes UV-exposed, compared to ethanol",statistical significant increase
same,OPG mRNA levels,MC3T3-E1 cells [1]; 30 min UV-exposed,decrease
same,RANKL mRNA levels,MC3T3-E1 cells [1]; 30 minutes UV-exposed,significant decrease
same,ALP mRNA levels,"MC3T3-E1 cells [1]; UV irradiated vs ethanol and UV-treated groups, significant at 30 minutes",higher ALP mRNA levels
same,OC mRNA levels,MC3T3-E1 cells [1]; UV-exposed for 15 min,tendency to increased OC mRNA levels
same,RANKL gene expression,"MC3T3-E1 cells [1]; all UV-treated groups (2×10^−2, 0.2, 2 nmols; 15 minutes) compared to control",Statistical significances; also recorded: significantly reduced
same,OSX mRNA levels,"MC3T3-E1 cells [1]; between all the groups, only significant at 10 minutes of UV exposure",very similar
same,BMP-2 mRNA levels,MC3T3-E1 cells [1]; when exposed to UV,No statistical differences
same,IL-6 mRNA levels,MC3T3-E1 cells [1]; when exposed to UV,No statistical differences
same,Collagen type-1 gene expression,"MC3T3-E1 cells [1]; with UV exposure time, significant at 15 and 30 minutes",trend to decrease
same,Calcium content,MC3T3-E1 cells [2],significant increase
